# Data as given in patent US10675267B2, “Methods for detection and eradication of myeloid leukemia stem cells” (priority 2015, dated 2020).
# Tested on: AML-08 human LSC engrafted in NSGS mice
# Assay: De novo AML PRIMAGRAFT model AML-08: FACS engraftment analysis and serial transplantation
# Assay type: in vivo, mouse
# Method: All animal studies were performed in accordance with UCSD and NIH-equivalent ethical guidelines and were approved by the Institutional Animal Care and Use Committee (IACUC protocol # S06015). For all in vivo experiments, animals of both genders were utilized. Three AML PRIMAGRAFT™ models were established by transplanting AML LSC-enriched cell fractions (either CD34-selected or FACS-purified stem or progenitor cell fractions from primary patient samples) into immunocompromised Rag2^−/−γc^−/−[20] or NOD/SCID-IL2RG mice (Jackson Laboratory) constitutively expressing human SCF, GM-CSF and IL-3 (NSGS) (FIGS. 8A-8D). […]
# Mice transplanted with 1-2×10^5 CD34^+ AML LSC-enriched fractions or no-transplant controls were screened for human hematopoietic cell engraftment (CD45^+ cells) in peripheral blood by FACS starting at 7-10 weeks post transplant. At 7-28 weeks post-transplant (7-36 weeks old), mice were euthanized, and peripheral blood and single cell suspensions of hematopoietic organs were analyzed for human cell engraftment by FACS. […]
# Flow cytometric analysis was performed on single cell suspensions from each hematopoietic tissue essentially as for primary patient samples, and frequencies of total live human CD45^+ cells, and CD45^+CD34^+CD38^− Lin^− (stem) and CD45^+CD34^+CD38^+ Lin^− (progenitor) cells were determined in each tissue. […]
compound,measurement,setting,value
"CC[C@H](OC)[C@@H](C)[C@H]1O[C@@H]1[C@@H](O)[C@H](C)/C=C/C=C(\C)[C@H]1OC(=O)C[C@H](O)CC[C@@](C)(O)[C@@H](OC(C)=O)/C=C/[C@@H]1C (stereo in doubt) [Formula 17S-FD-895, 17S-FD-895]",circulating leukemic cells in secondary recipients,"de novo AML model, lower dose",trend towards decreased circulating leukemic cells
same,decrease in circulating leukemic burden in secondary recipients,"model with high disease burden, serial transplantation, p=0.07",49%
